Data taken from patent US7354941B2, “Nicotinamide benzofused-heterocyclyl derivatives useful as selective inhibitors of PDE4 isozymes” (Pfizer Products Inc., priority 2000, dated 2008).
pIC50: −log10 of the molar value.

What was measured:
[1] = system: PDE4; details: cited from earlier work
[2] = system: guinea-pig trachea; details: cited from earlier work
[3] = system: antigen-induced bronchospasm; details: rat; cited from earlier work
[4] = system: rheumatoid arthritis patients; details: 35 patients, t.i.d., placebo-controlled; cited from earlier work
[5] = system: streptococcal cell wall (SCW)-induced arthritis; details: in vivo; cited from earlier work
[6] = system: antigen-induced lung eosinophilia; details: guinea-pig; cited from earlier work
[7] = in vivo; cited from earlier work
[8] = system: TNF-α mRNA expression; details: collagen II treated mice; cited from earlier work
[9] = system: high-affinity rolipram binding site (Sr); details: cited from earlier work
[10] = system: Patients with severe COPD; details: cited from earlier work; for mean pulmonary artery pressure: oral administration, severe COPD
[11] = system: isolated pulmonary artery rings; details: rings from normal rats and rats with hypoxia-induced pulmonary hypertension; cited from earlier work
[12] = system: seratonin-induced bronchoconstriction; details: dog; cited from earlier work
[13] = system: patients with COPD; details: cited from earlier work
[14] = system: patients; details: orally 5, 10, and 15 mg b.i.d., week 2; cited from earlier work
[15] = system: psoriatic epidermal slices; details: cited from earlier work
[16] = system: endotoxin-induced acute renal failure; details: cited from earlier work
[17] = system: epidermal basal cells; details: primary culture; cited from earlier work
[18] = system: psoriatic lesions; details: two double-blind studies versus vehicle; cited from earlier work
[19] = system: human peripheral blood mononuclear cells (HPBM); details: normal patients and subjects with atopic dermatitis; cited from earlier work
[20] = system: antigen-induced bronchoconstriction; details: guinea-pig; cited from earlier work
[21] = system: colitis; details: rat; cited from earlier work
[22] = system: histamine-induced and antigen-induced bronchoconstriction; details: guinea-pig; cited from earlier work
[23] = system: atopic dermatitis; details: topical, cited from earlier work
[24] = system: allergic rhinitis; details: in vivo; cited from earlier work
[25] = system: rhinorrhea; details: antigen-challenged pig; cited from earlier work
[26] = system: lipopolysaccharide-induced bowel erythrocyte extravasation; details: pretreatment i.p. 3×, rats; cited from earlier work
[27] = system: patients suffering from septic shock; details: 1 mg/kg/hr, after 24 hours; cited from earlier work

## O=S1(=O)CCN(c2nc(NC3CC3)nc(C3CC3)n2)C1 [(0.0.56)]
[1]
  pIC50: 6.82
[2]
  relaxant activity, guinea-pig trachea model: potent relaxant agents

## CC(=O)c1ccc(CNC(=O)c2cccnc2Oc2ccc3nonc3c2)cc1 [Example 7, N-[4-Acetyl-benzyl]-2-[benzo[2,1,3]oxadiazol-5-yloxy]-nicotinamide]
other
  melting point: 154 to 156 °C

## COc1ccc(CNc2c(C)noc2C)cc1OC1CCCC1 [RPR-132294]
[3]
  inhibition of antigen-induced bronchospasm: activity in the inhibition of antigen-induced bronchospasm

## COc1ccc(C(=O)Nc2c(Cl)cncc2Cl)cc1OC1CCCC1 [RP-73,401]
[4]
  clinical improvement: positive trend towards clinical improvement
[5]
  disease: joint destruction, synovitis, and fibrosis: significant amelioration of disease
[6]
  inhibition of antigen-induced lung, BAL and airway eosinophilia, EPO, PAF- and ozone-induced AHR, IL-5 induced pleural eosinophila: active
[7]
  emesis: elicit emesis
[8]
  TNF-α mRNA expression at the pannus/cartilage interface of paw joints: decrease TNF-α mRNA expression
[9]
  affinity at the Sr: high affinity at the Sr

## O=c1c2cccnc2n(-c2cccc([N+](=O)[O-])c2)c(=O)n1Cc1ccncc1 [RS-23,544]
[7]
  emesis: elicit emesis
[9]
  affinity at the Sr: high affinity at the Sr

## Cc1[nH]c(=O)c(C#N)cc1-c1ccncc1 [milrinone]
[10]
  mean pulmonary artery pressure: decreases in mean pulmonary artery pressure
[11]
  relaxant activities of isoproterenol and forskolin: same effect has been observed

## COc1ccc(/C(C)=N/OC(N)=O)cc1OC1CCCC1 [WAY-PDA-641]
[12]
  inhibition of seratonin-induced bronchoconstriction: active

## COc1ccc([C@]2(C#N)CC[C@@H](C(=O)O)CC2)cc1OC1CCCC1 [SB-207,499]
[13]; 15 mg b.i.d., week 6
  improvement in trough FEV1: 11%
  maximum mean difference in trough FEV1 compared with placebo: 160 mL
[13]; 15 mg twice a day for six weeks
  FEV1 and forced vital capacity (FVC): increrases in FEV1 and forced vital capacity (FVC)
[13]; four week trial
  FEV1: evidence of improved FEV1
[14]
  trough FEV1 from placebo: significant increases
[9]
  affinity at the Sr: comparatively low affinity at the Sr

## COc1ccc(-c2nc3cnccc3o2)c2c1OC1(CCCC1)C2 [(0.0.48)]
[1]
  pIC50: 8.60

## COc1ccc(CC2CNC(=O)N2)cc1OC1CCCC1 (stereo not shown) [Ro 20-1724]
[15]; keratomed psoriatic epidermis
  increase in cAMP concentration: 1395%
[15]; psoriatic epidermal slices and keratomed psoriatic epidermal slices
  cAMP concentrations over controls: very marked elevation of cAMP concentrations over controls
[16]; endotoxin-treated rats
  survival rates: improve survival rates
[16]; post-treatment at 10 μg/kg/min
  renal vascular resistance, renal blood flow and glomerular filtration rate: markedly attenuates endotoxin-induced increases in renal vascular resistance and decreases in renal blood flow and glomerular filtration rate
  urinary cAMP excretion: significantly increases urinary cAMP excretion
[17]
  cAMP concentrations: three-fold increase
[18]
  psoriatic lesions and adverse effects: improve psoriatic lesions without adverse systemic or cutaneous effects
[19]
  inhibition of the proliferation of HPBM: concentration-related inhibition

## CSc1ccc(C(=O)c2[nH]c(=O)[nH]c2C)cc1 [enoximone]
[10]
  mean pulmonary artery pressure: decreases in mean pulmonary artery pressure
[10]; patients hospitalized with decompensated COPD
  airway resistance: reduce airway resistance

## CCCn1c(=O)c2[nH]cnc2n(-c2ccc(Cl)cc2)c1=O [LAS-31025]
[20]
  inhibition of antigen-induced bronchoconstriction: active
[21]
  effects in dextran sulfate induced colitis model: beneficial effects comparable to prednisolone
  effects in models of colitis: beneficial effects

## O=c1c2c(ncn2Cc2cccnc2)c2cccnc2n1-c1ccccc1 [KF19514]
[22]
  inhibition of histamine- and antigen-induced bronchoconstriction, PAF- and antigen-induced eosinophilia, AHR, bronchospasm, anaphylactic bronchoconstriction: activity

## Nc1nc2c([nH]1)c(=O)n(CC1CC1)c(=O)n2CC1CC1 [BRL-61,063]
[7]
  adverse events of nausea and vomiting: adverse events of nausea and vomiting

## CC(C)(O)c1ccc(CNC(=O)c2cccnc2Oc2ccc3nonc3c2)c(F)c1 [Example 2, 2-[Benzo[2,1,3]oxadiazol-5-yloxy]-N-[2-fluoro-4-[1-hydroxy-1-methyl-ethyl]-benzyl]-nicotinamide]
other
  melting point: 160 to 161 °C

## CC(NC(=O)c1cccnc1Oc1ccc2nonc2c1)c1ccc(C(C)(C)O)cc1 (racemic) [Example 17, (±)-2-(Benzo[2,1,3]oxadiazol-5-yloxy)-N-{1-[4-(1-hydroxy-1-methyl-ethyl)-phenyl]ethyl}-nicotinamide]
other
  melting point: 116 to 117 °C

## COc1ccc(C2CNC(=O)NC2)cc1O[C@H]1C[C@@H]2CC[C@H]1C2 [CP-80,633]
[23]; bilaterally over eight days, twenty patients
  inflammatory parameters: effectively inhibit all of the inflammatory parameters tested
[23]; eight days
  adverse effects: no adverse effects
[7]
  emesis: elicit emesis
[9]
  affinity at the Sr: high affinity at the Sr

## O=C(NCc1ccc(C(O)C(F)(F)F)cc1)c1cccnc1Oc1ccc2nonc2c1 (racemic) [Example 5, (±)-2-[Benzo[2,1,3]oxadiazol-5-yloxy]-N-[4-[2,2,2-trifluoro-1-hydroxy-ethyl]-benzyl]-nicotinamide]
other
  melting point: 164 to 166 °C

## O=c1c2[nH]cnc2c2cccnc2n1-c1ccccc1 [KF17625]
[22]
  inhibition of histamine- and antigen-induced bronchoconstriction, PAF- and antigen-induced eosinophilia, AHR, bronchospasm, anaphylactic bronchoconstriction: activity

## CC(NC(=O)c1cccnc1Oc1ccc2nonc2c1)c1ccc(C(C)(C)O)cc1F (racemic) [Example 8, (±)-2-(Benzo[2,1,3]oxadiazol-5-yloxy)-N-{1-[2-fluoro-4-(1-hydroxy-1-methyl-ethyl)-phenyl]-ethyl}-nicotinamide]
other
  melting point: 128 to 130 °C

## O=C(Nc1c(Cl)cncc1Cl)C(=O)c1cn(Cc2ccc(F)cc2)c2ccc(O)cc12 [AWD-12,281]
[24]
  activity in a rat model of allergic rhinitis: active

## CCCn1c(=O)c2c(C)nc(CC)n2c2nc(OC)ccc21 [Example D-22888]
[25]
  anti-allergic effect and rhinorrhea: exhibit a strong anti-allergic affect and to inhibit rhinorrhea

## CC(O)c1ccc(CNC(=O)c2cccnc2Oc2ccc3nonc3c2)s1 (racemic) [Example 6, (±)-2-[Benzo[2,1,3]oxadiazol-5-yloxy]-N-[5-[1-hydroxy-ethyl]-thiophen-2-ylmethyl]-nicotinamide]
other
  melting point: 81 to 83 °C

## CC(C)(O)c1ccc(CNC(=O)c2cccnc2Oc2ccc3nonc3c2)c(Cl)c1 [Example 9, 2-(Benzo[2,1,3]oxadiazol-5-yloxy)-N-[2-chloro-4-(1-hydroxy-1-methyl-ethyl)-benzyl]-nicotinamide]
other
  melting point: 171 to 173 °C

## CC1CC1c1nc(NC2CC2)nc(N2CCOCC2)n1 (stereo not shown) [(0.0.57)]
[1]
  pIC50: 6.85
[2]
  relaxant activity, guinea-pig trachea model: potent relaxant agents

## CC(=O)CCCCn1c(=O)c2c(ncn2C)n(C)c1=O [pentoxifylline]
[26]
  lipopolysaccharide-induced bowel erythrocyte extravasation: reduces lipopolysaccharide-induced bowel erythrocyte extravasation
[27]
  IL-6 levels: significantly increased
  TNF-α levels: significantly lowered
